Measurements from patent US8710068B2, “Method of treating cancer using a survivin inhibitor” (The Trustees Of The University Of Pennsylvania, priority 2009, dated 2014).

Assays:
[1] = test system: AsPC1 pancreatic cancer cells; test: MTT tumor cell proliferation assay, AsPC1; type: cell-based, human; conditions: AsPC1, 5, 10, 20, or 50 μg/ml for 48 hours
Protocol: (§1) FIG. 3 illustrates the effect of S2 and its analogs on tumor cell proliferation. Cells were treated with DMSO or Survivin targeting molecules at the indicated concentration for 48 hours. The percentage of viable cells was evaluated by MTT assay. (A) AsPC1; (B) HeLa; (C) SKBR3; (D) DAOY.
(§2) FIG. 18 illustrates the effect of SBDO3, SN2, or SDC1 on tumor cell proliferation. (A) AsPC1 cells were treated with DMSO or the Survivin targeting molecules SBDO3 or SN2 at the indicated concentration for 48 hours. (B) SKBR3 cells were treated with DMSO or SDC1 for 48 hours. The percentage of viable cells was evaluated by MTT assay.
(§3) S2 and its analogs (S10, S11, S12, and S13) were tested for the ability to inhibit tumor cell proliferation by MTT assay. The AsPC1 pancreatic cancer cells were treated with DMSO, a control molecule SC2, or the Survivin-targeting compounds at the concentration of 5, 10, 20, or 50 μg/ml for 48 hours. The number of viable cells was evaluated by MTT.
(§4) SBDO3, SN2 and SDC1 were tested for the ability to inhibit tumor cell proliferation by MTT assay. The AsPC1 pancreatic cancer cells were treated with DMSO or the Survivin-targeting compounds at the concentration of 5, 10, 20, or 50 μg/ml for 48 hours. The number of viable cells was evaluated by MTT.

HeLa cells [2] = test: Cell cycle analysis of DNA content by PI staining and FACS, HeLa; type: cell-based, human; conditions: for accumulation of cells in the G2/M stage: HeLa, 15 hours, FACS DNA content; for block of cells in mitosis: FACS analysis and immunofluorescence studies
Protocol: FIG. 7 illustrates the effect of S2 or S12 on cell cycle progression. HeLa cells were treated with S2, S12, S10, S1 (control compound), or DMSO (control), propidium iodide (PI) staining and FACS analysis were performed to quantify the DNA content of cells.
FIG. 9 illustrates the effect of S12 on mitosis. (A) HeLa cells were treated with S12, S2 or DMSO for 15 hours. The cells were then fixed and subjected to immunostaining using antibodies specific for Aurora B (green) and Survivin (red). DNA was stained with DAPI. Chromosome misalignment is indicated with the arrowheads. (B) Percentage of S12-treated cells in mitosis, in metaphase, in anaphase/telophase, or with misaligned chromosomes. (C) Percentage of S2-treated cells in mitosis, in metaphase, in anaphase/telophase, or with misaligned chromosomes. (D) HeLa cells were treated with S12 (10 μg/ml) or DMSO (control) for 15 hours. Cells were examined by PI staining of DNA content by FACS analysis.
FIG. 17 illustrates (A) FACS analysis of DNA content of HeLa cells treated with SBDO3. Note the accumulation of cells at the G2/M stage. Cell death was also observed (sub-G1 population); (B) Immuno-fluorescence microscopy analysis of cell treated with SBDO3. Note that the microtubule bundles of the mitotic spindle are disorganized. The chromosomes are not aligned properly and cells cannot go through metaphase.
The candidate Survivin-targeting molecules identified by the virtual screen were examined for the ability to inhibit cell proliferation and mitosis. HeLa cells were treated with the compounds at various concentrations for 15 hours followed by examination of the DNA content by FACS analysis. […] The effects of S2 inflicted on cell proliferation and viability are consistent with the anticipated outcome caused by the ablation of Survivin functions. We have extended these studies to test a number of molecules that are structurally similar to S2, including S10, S11, S12 and S13. […] S12 affected cell proliferation and viability, consistent with the anticipated outcome caused by ablation of Survivin functions.
We analyzed distribution of cells in the different stages of the cell cycle by FACS. […] In addition, the inhibitory effect of SBDO3 is dose dependent (FIG. 17A).
We also conducted immuno-fluorescence studies on SBDO3 treated HeLa cells.

Survivin protein = target: T1, Survivin protein (Homo sapiens, UniProt O15392); test: Isothermal titration calorimetry (ITC) binding to native Survivin; conditions: ITC, in words
T1 construct: made in house; host or cells: bacteria
Protocol: FIG. 5 illustrates an analysis of S12-Survivin binding with isothermal titration calorimetry (ITC). Single-site point mutagenesis was performed to create the Survivin mutants F86A and V89Y. The native and the mutant proteins were produced and purified from bacteria.
FIG. 16 illustrates the isothermal titration calorimetry profile of the binding of SBDO3 to the Survivin homodimer.
In order to examine the specificity of the binding, we generated point mutations on the Survivin protein at the site presumably targeted by S12. The two mutations were substitutions of phenylalanine 86 with alanine (F86A) and valine 89 with tyrosine (V89Y). These two altered sites are also adjacent to the interface involved in dimerization of the Survivin protein. Based on structural analyses, we predict that alterations of either of these two amino acid residues may abolish the binding of S12 without affecting the overall structure of the Survivin protein.
We tested the binding of the Survivin target molecules to Survivin by isothermal titration calorimetry.

SKBR3 breast cancer cell = test: MTT tumor cell proliferation assay, SKBR3; type: cell-based, human; conditions: SKBR3, 48 hours
Protocol: as §1, §2, §3, §4

HeLa cells [3] = test: BrdU incorporation DNA synthesis assay (FACS), HeLa; type: cell-based, human; conditions: 4 hours treatment then one-hour BrdU
Protocol: BrdU-labeled cells were analyzed by FACS. The percentage of BrdU-positive cells is indicated.
HeLa cells were treated with S12, aphidicolin, or DMSO (control) for 4 hours. BrdU was then added to the medium followed by an additional incubation of 1 hour. The amount of BrdU was examined by staining with anti-BrdU antibody and FACS analysis. The percentage of BrdU-positive cells is shown.
To establish the specificity of the biological activities of the Survivin targeting we examined whether the compounds affect DNA synthesis. HeLa cells were treated with Aphidicolin, S2 or DMSO for 4 hours, followed by one-hour incubation with BrdU. The cells were then collected, fixed and stained with FITC-labeled anti-BrdU antibody.

T1 sequence (O15392 whole entry): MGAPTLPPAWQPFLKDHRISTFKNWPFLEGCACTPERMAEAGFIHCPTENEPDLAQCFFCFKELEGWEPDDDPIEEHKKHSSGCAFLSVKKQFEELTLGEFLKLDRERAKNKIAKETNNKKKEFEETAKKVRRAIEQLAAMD

| SMILES | inhibition of cell proliferation / cell viability [1] | accumulation of cells in the G2/M stage (HeLa cells [2]) | binding to the Survivin protein (Survivin protein) | inhibition of proliferation (SKBR3 breast cancer cell) | block of cells in mitosis (HeLa cells [2]) | DNA synthesis (BrdU incorporation) (HeLa cells [3]) |
| --- | --- | --- | --- | --- | --- | --- |
| O=C(CC1(O)C(=O)Nc2ccc(Br)cc21)c1ccc(F)cc1 (stereo not shown) [S10] | can inhibit cell proliferation and reduce cell viability in a dose-dependent manner | exhibit the ability to arrest the cells at the G2/M stage | – | – | – | – |
| O=C(CC1(O)C(=O)Nc2ccc(Br)cc21)c1cccc([N+](=O)[O-])c1 (stereo not shown) [S11] | can inhibit cell proliferation and reduce cell viability in a dose-dependent manner | exhibit the ability to arrest the cells at the G2/M stage | – | – | – | – |
| O=C(CC1(O)C(=O)Nc2ccccc21)c1ccccc1 (stereo not shown) [S13] | can inhibit cell proliferation and reduce cell viability in a dose-dependent manner | exhibit the ability to arrest the cells at the G2/M stage | – | – | – | – |
| O=C(O)c1ccccc1C(=O)c1ccc(Sc2ccccc2)c([N+](=O)[O-])c1 [SDC1] | can inhibit cell proliferation and reduce cell viability in a dose-dependent manner | – | can bind to the Survivin protein | can inhibit proliferation | can also block cells in mitosis | – |
| COc1ccc(C2C(C#N)=C(N)OC3=C2C(=O)CC(C)(C)C3)cc1OCc1ccccc1 (stereo not shown) [SN2] | can inhibit cell proliferation and reduce cell viability in a dose-dependent manner | – | – | – | can also block cells in mitosis | – |
| C[C@@]1(CO)[C@H](O)CC[C@@]2(C)[C@H]1CC[C@H]1C[C@@H]3C[C@@]12CC[C@]3(O)CO [aphidicolin, reference compound] | – | – | – | – | – | inhibits DNA replication |
